Test results as given in patent publication US7393952B2, “Solvent free amorphous rapamycin” (Cordis Corporation, priority 2004, dated 2008).

Test: differential scanning calorimetry (DSC) of amorphous sirolimus
Type: physicochemical
Details: DSC curve for this sample (FIG. 6); about 3 mg, heating rate 2° C./min, -40 to 200° C., nitrogen flow
Method: In another test, the amorphous sirolimus is analyzed utilizing differential scanning calorimetry (DSC). Essentially, the purpose of this test is to determine the glass transition temperature of the amorphous sirolimus. In this test, approximately 3 mg of amorphous sirolimus is transferred into a standard aluminum TA-Instrument sample pan and covered. The DSC curve is recorded on a TA-Instruments Q1000 MTDSC equipped with a RCS cooling unit. FIG. 6 illustrates a differential scanning calorimetry (DSC) curve of amorphous sirolimus. […] Based on a number of scans, the glass transition temperatures may be in the range from about 92 degrees C. to about 95 degrees C.

For `CO[C@H]1C[C@@H]2CC[C@@H](C)[C@@](O)(O2)C(=O)C(=O)N2CCCC[C@H]2C(=O)O[C@H]([C@H](C)C[C@@H]2CC[C@@H](O)[C@H](OC)C2)CC(=O)[C@H](C)/C=C(\C)[C@@H](O)[C@@H](OC)C(=O)[C@H](C)C[C@H](C)/C=C/C=C/C=C/1C` [amorphous sirolimus, sirolimus (rapamycin)], the glass transition temperature was “about 93 degrees C”.
